Test results reported in patent publication US7659404B2, “Broad spectrum 2-(substituted-amino)-benzothiazole sulfonamide HIV protease inhibitors” (Tibotec Pharmaceuticals Ltd., priority 2001, dated 2010).

Experiments:
[1] = system: virus strain F (R13025); assay: microbe, parasite or virus in culture; type: cell-based, HIV; settings: for fold resistance (FR), strain F: FR=EC50(mutant strain)/EC50(HIV-1 strain LAI); for EC50: Human immunodeficiency virus 1, MT4, read-out: HIV-AVE-MT4-MTT-R13025-2-002 pEC50, virus strain F (R13025), MT4 cells, MTT (converted); for HIV-AVE-MT4-MTT-R13025-2-002 pEC50: virus strain F (R13025), MT4 cells
Experimental: (§1) HIV- or mock-infected MT4 cells were incubated for five days in the presence of various concentrations of the inhibitor. […] Cell viability is measured by measuring the concentration of MTT, a yellow, water soluble tetrazolium dye that is converted to a purple, water insoluble formazan in the mitochondria of living cells only. Upon solubilization of the resulting formazan crystals with isopropanol, the absorbance of the solution is monitored at 540 nm. The values correlate directly to the number of living cells remaining in the culture at the completion of the five day incubation. The inhibitory activity of the compound was monitored on the virus-infected cells and was expressed as EC50 and EC90. These values represent the amount of the compound required to protect 50% and 90%, respectively, of the cells from the cytopathogenic effect of the virus. The toxicity of the compound was measured on the mock-infected cells and was expressed as CC50, which represents the concentration of compound required to inhibit the growth of the cells by 50%. The selectivity index (SI) (ratio CC50/EC50) is an indication of the selectivity of the anti-HIV activity of the inhibitor.
(§2) Because of the increasing emergence of drug resistant HIV strains, the present compounds were tested for their potency against clinically isolated HIV strains harboring several mutations.
(§3) As a measure of the broad spectrum activity of the present compounds, the fold resistance (FR) defined as FR=EC50(mutant strain)/EC50(HIV-1 strain LAI).

[2] = system: virus strain S (R13080); assay: microbe, parasite or virus in culture; type: cell-based, HIV; settings: for fold resistance (FR), strain S: FR=EC50(mutant strain)/EC50(HIV-1 strain LAI); for EC50: Human immunodeficiency virus 1, MT4, read-out: HIV-AVE-MT4-MTT-R13080-2-002 pEC50, virus strain S (R13080), MT4 cells, MTT (converted); for HIV-AVE-MT4-MTT-R13080-2-002 pEC50: virus strain S (R13080), MT4 cells
Experimental: as §1, §2, §3

[3] = system: clinically isolated HIV strain H; type: cell-based; settings: FR=EC50(mutant strain)/EC50(HIV-1 strain LAI)
Experimental: as §1, §2, §3

[4] = system: clinically isolated HIV strain I; type: cell-based; settings: FR=EC50(mutant strain)/EC50(HIV-1 strain LAI)
Experimental: as §1, §2, §3

[5] = system: clinically isolated HIV strain J; type: cell-based; settings: FR=EC50(mutant strain)/EC50(HIV-1 strain LAI)
Experimental: as §1, §2, §3

[6] = system: clinically isolated HIV strain O; type: cell-based; settings: FR=EC50(mutant strain)/EC50(HIV-1 strain LAI)
Experimental: as §1, §2, §3

[7] = system: clinically isolated HIV strain T; type: cell-based; settings: FR=EC50(mutant strain)/EC50(HIV-1 strain LAI)
Experimental: as §1, §2, §3

[8] = system: wild type virus (IIIB); assay: HIV-AVE-MT4-MTT cellular assay, wild type virus (IIIB); type: cell-based; settings: MT4 cells, MTT; for EC50: Human immunodeficiency virus 1, IIIB, MT4, wild type virus (IIIB), read-out: HIV-AVE-MT4-MTT-IIIB-2-002 pEC50 (converted); for HIV-AVE-MT4-MTT-IIIB-2-002 pEC50: wild type virus (IIIB)
Experimental: HIV- or mock-infected MT4 cells were incubated for five days in the presence of various concentrations of the inhibitor. At the end of the incubation period, all HIV-infected cells have been killed by the replicating virus in the control cultures in the absence of any inhibitor. Cell viability is measured by measuring the concentration of MTT, a yellow, water soluble tetrazolium dye that is converted to a purple, water insoluble formazan in the mitochondria of living cells only. Upon solubilization of the resulting formazan crystals with isopropanol, the absorbance of the solution is monitored at 540 nm. The values correlate directly to the number of living cells remaining in the culture at the completion of the five day incubation. The inhibitory activity of the compound was monitored on the virus-infected cells and was expressed as EC50 and EC90. These values represent the amount of the compound required to protect 50% and 90%, respectively, of the cells from the cytopathogenic effect of the virus. The toxicity of the compound was measured on the mock-infected cells and was expressed as CC50, which represents the concentration of compound required to inhibit the growth of the cells by 50%. The selectivity index (SI) (ratio CC50/EC50) is an indication of the selectivity of the anti-HIV activity of the inhibitor.

Q: With CC(C)CN(CC(O)C(Cc1ccccc1)NC(=O)OC1COC2OCCC12)S(=O)(=O)c1ccc2nc(NC(=O)CN3CCNCC3)sc2c1 (mixture of isomers) [Compound 5] as the compound, how does the “fold resistance (FR), strain F” value [1] read?
A: 0.5

Q: And the “fold resistance (FR), strain S” value [2]?
A: 0.6

Q: And the “fold resistance (FR), strain H” value [3]?
A: 0.6

Q: And the “fold resistance (FR), strain I” value [4]?
A: 0.6

Q: And the “fold resistance (FR), strain J” value [5]?
A: 0.3

Q: What about the “fold resistance (FR), strain O” value [6] of the same compound?
A: 0.4

Q: What about the “fold resistance (FR), strain T” value [7] of the same compound?
A: 2.6

Q: Which results are given for COC(=O)CNc1nc2ccc(S(=O)(=O)N(CC(C)C)CC(O)C(Cc3ccccc3)NC(=O)OC3COC4OCCC34)cc2s1 (mixture of isomers) [Compound 6]?
A: fold resistance (FR), strain F [1]: 24.0; fold resistance (FR), strain S [2]: 30.7; fold resistance (FR), strain H [3]: 7.7; fold resistance (FR), strain I [4]: 5.3; fold resistance (FR), strain J [5]: 5.6; fold resistance (FR), strain O [6]: 4.7; fold resistance (FR), strain T [7]: 104.3

Q: Which results are given for CC(C)CN(C[C@@H](O)[C@H](Cc1ccccc1)NC(=O)O[C@H]1CO[C@H]2OCC[C@H]21)S(=O)(=O)c1ccc2nc(NC(=O)CN3CCNCC3)sc2c1 [Compound 17]?
A: fold resistance (FR), strain F [1]: 0.3; fold resistance (FR), strain S [2]: 0.6; fold resistance (FR), strain H [3]: 0.8; fold resistance (FR), strain I [4]: 0.7; fold resistance (FR), strain J [5]: 0.2; fold resistance (FR), strain O [6]: 0.3; fold resistance (FR), strain T [7]: 1.0

Q: CC(C)CN(C[C@@H](O)[C@H](Cc1ccccc1)NC(=O)O[C@H]1CO[C@H]2OCC[C@H]21)S(=O)(=O)c1ccc2nc(NCCN(C)C(=O)OC(C)(C)C)sc2c1 [Compound 21] was tested. Which “fold resistance (FR), strain F” value [1] did it give?
A: 16.6

Q: What about the “fold resistance (FR), strain S” value [2] of the same compound?
A: 38.6

Q: And the “fold resistance (FR), strain H” value [3]?
A: 4.8

Q: What about the “fold resistance (FR), strain I” value [4] of the same compound?
A: 3.7

Q: What about the “fold resistance (FR), strain J” value [5] of the same compound?
A: 3.3

Q: What about the “fold resistance (FR), strain O” value [6] of the same compound?
A: 3.4

Q: And the “fold resistance (FR), strain T” value [7]?
A: 380.0

Q: What does the source list for CC(C)CN(C[C@@H](O)[C@H](Cc1ccccc1)NC(=O)OCc1cncs1)S(=O)(=O)c1ccc2nc(NC(=O)c3ccncc3)sc2c1 [Compound 168]?
A: EC50 [8]: 24.5 nM; EC50 [1]: 31.6 nM; EC50 [2]: 135 nM

Q: What does the source list for CC(=O)Nc1nc2ccc(S(=O)(=O)N(CC(C)C)C[C@@H](O)[C@H](Cc3ccccc3)NC(=O)OCc3cncs3)cc2s1 [Compound 169]?
A: EC50 [8]: 8.51 nM; EC50 [1]: 6.76 nM; EC50 [2]: 35.5 nM

Q: Which results are given for CCOC(=O)Nc1nc2ccc(S(=O)(=O)N(CC(C)C)C[C@@H](O)[C@H](Cc3ccccc3)NC(=O)OCc3cncs3)cc2s1 [Compound 170]?
A: EC50 [8]: 7.59 nM; EC50 [1]: 17.4 nM; EC50 [2]: 162 nM

Q: What does the source list for CC(C)COC(=O)Nc1nc2ccc(S(=O)(=O)N(CC(C)C)C[C@@H](O)[C@H](Cc3ccccc3)NC(=O)OCc3cncs3)cc2s1 [Compound 171]?
A: EC50 [8]: 51.3 nM; EC50 [1]: 186 nM; EC50 [2]: 851 nM

Q: With CC(C)CN(C[C@@H](O)[C@H](Cc1ccccc1)NC(=O)OCc1cncs1)S(=O)(=O)c1ccc2nc(NC(=O)c3ccno3)sc2c1 [Compound 172] as the compound, how does the EC50 [8] read?
A: 42.7 nM

Q: What about the EC50 [1] of the same compound?
A: 245 nM

Q: And the EC50 [2]?
A: 813 nM

Q: CC(C)CN(C[C@@H](O)[C@H](Cc1ccccc1)NC(=O)OCc1cncs1)S(=O)(=O)c1ccc2nc(N(C)C(=O)CN3CCN(C)CC3)sc2c1 [Compound 173] was tested. Which “HIV-AVE-MT4-MTT-IIIB-2-002 pEC50” value [8] did it give?
A: 8.25

Q: What about the “HIV-AVE-MT4-MTT-R13025-2-002 pEC50” value [1] of the same compound?
A: 7.52

Q: And the “HIV-AVE-MT4-MTT-R13080-2-002 pEC50” value [2]?
A: 6.81

Q: How did the “HIV-AVE-MT4-MTT-IIIB-2-002 pEC50” value [8] turn out when CC(C)CN(C[C@@H](O)[C@H](Cc1ccccc1)NC(=O)OCc1cncs1)S(=O)(=O)c1ccc2nc(N(C)C(=O)CN3CCOCC3)sc2c1 [Compound 174] was run?
A: 8.04

Q: And the “HIV-AVE-MT4-MTT-R13025-2-002 pEC50” value [1]?
A: 6.88

Q: And the “HIV-AVE-MT4-MTT-R13080-2-002 pEC50” value [2]?
A: 6.18

Q: For CC(C)CN(C[C@@H](O)[C@H](Cc1ccccc1)NC(=O)OCc1cncs1)S(=O)(=O)c1ccc2nc(N(C)C(=O)CN(C)CCCN3CCCC3)sc2c1 [Compound 175], which “HIV-AVE-MT4-MTT-IIIB-2-002 pEC50” value [8] is on record?
A: 7.3

Q: And the “HIV-AVE-MT4-MTT-R13025-2-002 pEC50” value [1]?
A: 6.03

Q: And the “HIV-AVE-MT4-MTT-R13080-2-002 pEC50” value [2]?
A: 5.5
